Data on 15 molecules can be found in PubChem BioAssay AID248 (DTP/NCI, 2004).

Where “and” joins values, the source holds several entries; their conditions need not be identical. Equal values may be shown once. Toxic doses and inconclusive results are not listed.

For the test, the system named is L1210 leukemia ip in BDF1 mice, survival T/C. Description: NCI In Vivo Anticancer Drug Screen. Data for tumor model L1210 Leukemia (intraperitoneal) in B6D2F1 (BDF1) mice. Particulars: higher = longer survival. The essentials: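 Mice bearing the transplanted tumor received compound or vehicle. Survival of the treated group was divided by that of the vehicle-treated control group to give the ratio.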

Where [1] appears, read: endpoint: mean survival time, dose: 100.0 mg/kg/injection, schedule: Q04DX003 (ip), vehicle: saline with Tween-80.
Where [2] appears, read: endpoint: mean survival time, dose: 200.0 mg/kg/injection, schedule: Q04DX003 (ip), vehicle: saline with Tween-80.
Where [3] appears, read: endpoint: mean survival time, dose: 200.0 mg/kg/injection, schedule: Q01DX001 (ip), vehicle: carboxymethylcellulose (CMC).

Consider `O=C(O)c1ccccc1SCc1cc(=O)[nH]c(=O)[nH]1`, for which the T/C was 102 % of control under setting [1]; 102 % of control under setting [2]; 98 % of control (endpoint: mean survival time, dose: 400.0 mg/kg/injection, schedule: Q04DX003 (ip), vehicle: saline with Tween-80).
On to `CCN(CC)Cc1ccccc1COC(=O)/C=C/c1ccccc1`, for which the T/C is 108 % of control (endpoint: mean survival time, dose: 100.0 mg/kg/injection, schedule: Q04DX002 (ip), vehicle: saline); 86 % of control (endpoint: mean survival time, dose: 200.0 mg/kg/injection, schedule: Q04DX002 (ip), vehicle: saline); 108 % of control (endpoint: mean survival time, dose: 400.0 mg/kg/injection, schedule: Q04DX002 (ip), vehicle: saline).
For the molecule `COC1OC2COC(c3ccccc3)OC2C(OC(=O)c2ccccc2)C1OC(=S)SCc1ccccc1` (centres undefined), the T/C was 107 % of control (endpoint: mean survival time, dose: 12.5 mg/kg/injection, schedule: Q04DX002 (ip), vehicle: saline); 104 % of control (endpoint: mean survival time, dose: 25.0 mg/kg/injection, schedule: Q04DX002 (ip), vehicle: saline); 104 % of control (endpoint: mean survival time, dose: 50.0 mg/kg/injection, schedule: Q04DX002 (ip), vehicle: saline).
For `COc1ccc(C(=O)CC2(O)C(=O)Nc3ccc(Br)cc32)cc1` (centres undefined), the T/C is 92 % of control (endpoint: mean survival time, dose: 100.0 mg/kg/injection, schedule: Q04DX002 (ip), vehicle: Klucel (hydroxypropylcellulose) (HPC)); 89 % of control (endpoint: mean survival time, dose: 200.0 mg/kg/injection, schedule: Q04DX002 (ip), vehicle: Klucel (hydroxypropylcellulose) (HPC)); 92 % of control (endpoint: mean survival time, dose: 400.0 mg/kg/injection, schedule: Q04DX002 (ip), vehicle: Klucel (hydroxypropylcellulose) (HPC)).
In the case of `S=C(Nc1cccc(Cl)c1)Nc1cccc(Cl)c1`, the T/C is 94 % of control under setting [1] and 97 % of control under setting [2].
`CCCCN(C)/N=N/c1nc[nH]c1C(N)=O`: the T/C is 111 % of control (endpoint: mean survival time, dose: 4.0 mg/kg/injection, schedule: Q01DX009 (ip), vehicle: other); 111 % of control (endpoint: mean survival time, dose: 7.0 mg/kg/injection, schedule: Q01DX009 (ip), vehicle: other); 117 % of control (endpoint: mean survival time, dose: 12.25 mg/kg/injection, schedule: Q01DX009 (ip), vehicle: saline with Tween-80); 109 % of control (endpoint: mean survival time, dose: 17.6 mg/kg/injection, schedule: Q01DX009 (ip), vehicle: carboxymethylcellulose (CMC)); 124 % of control (endpoint: mean survival time, dose: 20.0 mg/kg/injection, schedule: Q01DX Z (ip), vehicle: carboxymethylcellulose (CMC)); 120 % of control (endpoint: mean survival time, dose: 26.0 mg/kg/injection, schedule: Q01DX009 (ip), vehicle: carboxymethylcellulose (CMC)). The T/C by setting is: (endpoint: mean survival time, dose: 36.0 mg/kg/injection, schedule: Q01DX009 (ip), vehicle: other) 168 % of control; (endpoint: mean survival time, dose: 36.7 mg/kg/injection, schedule: Q04DX003 (ip), vehicle: saline with Tween-80) 117 % of control; (endpoint: mean survival time, dose: 40.0 mg/kg/injection, schedule: Q01DX009 (ip), vehicle: carboxymethylcellulose (CMC)) 124 % of control; (endpoint: mean survival time, dose: 40.0 mg/kg/injection, schedule: Q01DX Z (ip), vehicle: carboxymethylcellulose (CMC)) 164 % of control; (endpoint: mean survival time, dose: 49.0 mg/kg/injection, schedule: Q01DX009 (ip), vehicle: saline with Tween-80) 153 % of control; (endpoint: mean survival time, dose: 53.0 mg/kg/injection, schedule: Q01DX001 (ip), vehicle: saline with Tween-80) 107 % of control. The T/C is 154 % of control (endpoint: mean survival time, dose: 60.0 mg/kg/injection, schedule: Q01DX009 (ip), vehicle: other); 122 % of control (endpoint: mean survival time, dose: 73.5 mg/kg/injection, schedule: Q04DX003 (ip), vehicle: saline with Tween-80); 158 % of control (endpoint: mean survival time, dose: 80.0 mg/kg/injection, schedule: Q01DX Z (ip), vehicle: carboxymethylcellulose (CMC)); 103 % of control (endpoint: mean survival time, dose: 88.0 mg/kg/injection, schedule: Q01DX001 (ip), vehicle: carboxymethylcellulose (CMC)); 121 % of control (endpoint: mean survival time, dose: 88.0 mg/kg/injection, schedule: Q01DX001 (ip), vehicle: other); 119 % of control (endpoint: mean survival time, dose: 100.0 mg/kg/injection, schedule: Q01DX001 (ip), vehicle: other). For the same molecule, the T/C (endpoint: mean survival time, dose: 100.0 mg/kg/injection, schedule: Q01DX009 (ip), vehicle: other) was 90 % of control; the T/C (endpoint: mean survival time, dose: 106.0 mg/kg/injection, schedule: Q01DX001 (ip), vehicle: saline with Tween-80) is 119 % of control; the T/C (endpoint: mean survival time, dose: 120.0 mg/kg/injection, schedule: Q01DX Z (ip), vehicle: carboxymethylcellulose (CMC)) was 101 % of control; the T/C (endpoint: mean survival time, dose: 133.0 mg/kg/injection, schedule: Q01DX001 (ip), vehicle: carboxymethylcellulose (CMC)) was 103 % of control; the T/C (endpoint: mean survival time, dose: 147.0 mg/kg/injection, schedule: Q04DX003 (ip), vehicle: saline with Tween-80) is 153 % of control; the T/C (endpoint: mean survival time, dose: 160.0 mg/kg/injection, schedule: Q01DX009 (ip), vehicle: carboxymethylcellulose (CMC)) is 98 % of control. The T/C runs as follows: under setting [3], 106 % of control; (endpoint: mean survival time, dose: 400.0 mg/kg/injection, schedule: Q01DX001 (ip), vehicle: other) 122 % of control; (endpoint: median survival time, dose: 10.0 mg/kg/injection, schedule: Q01DX009 (ip), vehicle: steriod suspending solution) 116 % of control; (endpoint: median survival time, dose: 20.0 mg/kg/injection, schedule: Q01DX009 (ip), vehicle: steriod suspending solution) 122 % of control; (endpoint: median survival time, dose: 40.0 mg/kg/injection, schedule: Q01DX009 (ip), vehicle: steriod suspending solution) 150 % of control and 155 % of control; (endpoint: median survival time, dose: 80.0 mg/kg/injection, schedule: Q01DX009 (ip), vehicle: steriod suspending solution) 155 % of control and 166 % of control. Further, under “endpoint: median survival time, dose: 160.0 mg/kg/injection, schedule: Q01DX009 (ip), vehicle: steriod suspending solution”, the T/C was 100 % of control.
As to `COc1ccc(C(C)(O)c2cnc(C)n2Cc2ccccc2)cc1` (centres undefined), the T/C is, setting by setting: (endpoint: mean survival time, dose: 100.0 mg/kg/injection, schedule: Q04DX003 (ip), vehicle: Klucel (hydroxypropylcellulose) (HPC)) 99 % of control; (endpoint: mean survival time, dose: 200.0 mg/kg/injection, schedule: Q04DX003 (ip), vehicle: Klucel (hydroxypropylcellulose) (HPC)) 97 % of control; (endpoint: mean survival time, dose: 400.0 mg/kg/injection, schedule: Q04DX003 (ip), vehicle: Klucel (hydroxypropylcellulose) (HPC)) 95 % of control.
As for `Cc1ccc(/C=C(\C#N)C(=O)O)cc1`, the T/C was 94 % of control (endpoint: mean survival time, dose: 12.5 mg/kg/injection, schedule: Q01DX009 (ip), vehicle: saline with Tween-80); 94 % of control (endpoint: mean survival time, dose: 25.0 mg/kg/injection, schedule: Q01DX009 (ip), vehicle: saline with Tween-80); 100 % of control and 88 % of control (endpoint: mean survival time, dose: 50.0 mg/kg/injection, schedule: Q01DX009 (ip), vehicle: saline with Tween-80).
For the molecule `CCCCC(CCCC)NC(C)CO` (centres undefined), the T/C (endpoint: mean survival time, dose: 75.0 mg/kg/injection, schedule: Q01DX001 (ip), vehicle: saline) is 102 % of control.
Consider `Brc1csnn1`, for which the T/C reads like this: (endpoint: mean survival time, dose: 50.0 mg/kg/injection, schedule: Q01DX001 (ip), vehicle: carboxymethylcellulose (CMC)) 98 % of control; (endpoint: mean survival time, dose: 100.0 mg/kg/injection, schedule: Q01DX001 (ip), vehicle: carboxymethylcellulose (CMC)) 110 % of control; under setting [3], 95 % of control.
On to `CC(C)(C)C(=O)CC(=O)C(C)(C)C.CC(C)(C)C(=O)CC(=O)C(C)(C)C.[Zn]`, for which the T/C by setting is: under setting [1], 97 % of control; under setting [2], 95 % of control.
Consider `ClCC1(CCl)OCCO1`, for which the T/C (endpoint: mean survival time, dose: 75.0 mg/kg/injection, schedule: Q01DX001 (ip), vehicle: carboxymethylcellulose (CMC)) was 95 % of control and the T/C (endpoint: mean survival time, dose: 150.0 mg/kg/injection, schedule: Q01DX001 (ip), vehicle: carboxymethylcellulose (CMC)) is 104 % of control.
With `CCCNC(C)C(=O)c1ccccc1` (centres undefined), the T/C was 93 % of control (endpoint: mean survival time, dose: 12.5 mg/kg/injection, schedule: Q01DX009 (ip), vehicle: saline); 97 % of control (endpoint: mean survival time, dose: 25.0 mg/kg/injection, schedule: Q01DX009 (ip), vehicle: saline); 108 % of control (endpoint: mean survival time, dose: 50.0 mg/kg/injection, schedule: Q01DX009 (ip), vehicle: saline); 86 % of control (endpoint: mean survival time, dose: 100.0 mg/kg/injection, schedule: Q01DX009 (ip), vehicle: saline).
For `C=Cc1c2ccccc2cc2c1ccc1ccccc12`, the T/C (endpoint: mean survival time, dose: 100.0 mg/kg/injection, schedule: Q04DX002 (ip), vehicle: other) is 102 % of control; the T/C (endpoint: mean survival time, dose: 200.0 mg/kg/injection, schedule: Q04DX002 (ip), vehicle: other) was 106 % of control; the T/C (endpoint: mean survival time, dose: 400.0 mg/kg/injection, schedule: Q04DX002 (ip), vehicle: other) was 109 % of control.
Regarding `N/N=C(\c1ccccc1)c1ccccn1`, the T/C by setting is: (endpoint: mean survival time, dose: 55.0 mg/kg/injection, schedule: Q01DX Z (ip), vehicle: methylcellulose (MC)) 103 % of control; (endpoint: mean survival time, dose: 83.0 mg/kg/injection, schedule: Q01DX Z (ip), vehicle: methylcellulose (MC)) 97 % of control; (endpoint: mean survival time, dose: 125.0 mg/kg/injection, schedule: Q01DX Z (ip), vehicle: methylcellulose (MC)) 90 % of control.
